What was measured:
PBMC = conditions: 12.5 µM

Row | Compound | Average (percentage cell inhibition), Dmastoparan MDA-MB231 12.5uM (MDA-MB-231 cells) [%] | Average (percentage cell inhibition), Mastoparan PBMC (PBMC) [%]
1 | CC[C@H](C)[C@H](N)C(=O)N[C@@H](CC(N)=O)C(=O)N[C@@H](CC(C)C)C(=O)N[C@@H](CCCCN)C(=O)N[C@@H](C)C(=O)N[C@@H](CC(C)C)C(=O)N[C@@H](C)C(=O)N[C@@H](C)C(=O)N[C@@H](CC(C)C)C(=O)N[C@@H](C)C(=O)N[C@@H](CCCCN)C(=O)N[C@H](C(=O)N[C@H](C(=O)N[C@@H](CC(C)C)C(N)=O)[C@@H](C)CC)[C@@H](C)O [T12] | 27.1643 | 10.5164
2 | CC[C@H](C)[C@H](N)C(=O)N[C@@H](CCCCN)C(=O)N[C@@H](CC(C)C)C(=O)N[C@@H](CCCCN)C(=O)N[C@@H](C)C(=O)N[C@@H](CC(C)C)C(=O)N[C@@H](C)C(=O)N[C@@H](C)C(=O)N[C@@H](CC(C)C)C(=O)N[C@@H](C)C(=O)N[C@@H](CCCCN)C(=O)N[C@@H](CCCCN)C(=O)N[C@H](C(=O)N[C@@H](CC(C)C)C(N)=O)[C@@H](C)CC [K2] | 44.3131 | 14.3506
3 | CC[C@H](C)[C@H](N)C(=O)N[C@@H](CC(N)=O)C(=O)N[C@@H](CC(C)C)C(=O)N[C@@H](CCCCN)C(=O)N[C@@H](C)C(=O)N[C@@H](CC(C)C)C(=O)N[C@@H](C)C(=O)N[C@@H](C)C(=O)N[C@@H](CC(C)C)C(=O)N[C@@H](C)C(=O)N[C@@H](CCCCN)C(=O)N[C@H](C(=O)N[C@H](C(=O)N[C@@H](CC(C)C)C(N)=O)[C@@H](C)CC)[C@@H](C)CC [I12] | 44.3343 | 20.8332
4 | CC[C@H](C)[C@H](N)C(=O)N[C@@H](CC(N)=O)C(=O)N[C@@H](CC(C)C)C(=O)N[C@@H](CCCCN)C(=O)N[C@@H](C)C(=O)N[C@@H](CC(C)C)C(=O)N[C@@H](C)C(=O)N[C@@H](C)C(=O)N[C@@H](CC(C)C)C(=O)N[C@@H](C)C(=O)N[C@@H](CCCCN)C(=O)N[C@@H](Cc1ccc(O)cc1)C(=O)N[C@H](C(=O)N[C@@H](CC(C)C)C(N)=O)[C@@H](C)CC [Y12] | 47.3973 | 22.3509
5 | CC[C@H](C)[C@H](N)C(=O)N[C@@H](CC(N)=O)C(=O)N[C@@H](CC(C)C)C(=O)N[C@@H](CCCCN)C(=O)N[C@@H](C)C(=O)N[C@@H](CC(C)C)C(=O)N[C@@H](C)C(=O)N[C@@H](C)C(=O)N[C@@H](CC(C)C)C(=O)N[C@@H](CCC(=O)O)C(=O)N[C@@H](CCCCN)C(=O)N[C@@H](CCCCN)C(=O)N[C@H](C(=O)N[C@@H](CC(C)C)C(N)=O)[C@@H](C)CC [E10] | 7.891 | -0.2344
6 | CC[C@H](C)[C@H](N)C(=O)N[C@@H](CC(N)=O)C(=O)N[C@@H](CC(C)C)C(=O)N[C@@H](CCCCN)C(=O)N[C@@H](C)C(=O)N[C@@H](CC(C)C)C(=O)N[C@@H](C)C(=O)N1CCC[C@H]1C(=O)N[C@@H](CC(C)C)C(=O)N[C@@H](C)C(=O)N[C@@H](CCCCN)C(=O)N[C@@H](CCCCN)C(=O)N[C@H](C(=O)N[C@@H](CC(C)C)C(N)=O)[C@@H](C)CC [P8] | 8.428 | -8.536
7 | CC[C@H](C)[C@H](N)C(=O)N[C@@H](CC(N)=O)C(=O)N[C@@H](CC(C)C)C(=O)N[C@@H](CCCCN)C(=O)N[C@@H](C)C(=O)N[C@@H](CC(C)C)C(=O)N[C@@H](C)C(=O)N[C@@H](CO)C(=O)N[C@@H](CC(C)C)C(=O)N[C@@H](C)C(=O)N[C@@H](CCCCN)C(=O)N[C@@H](CCCCN)C(=O)N[C@H](C(=O)N[C@@H](CC(C)C)C(N)=O)[C@@H](C)CC [S8] | 32.8816 | -6.033
8 | CC[C@H](C)[C@H](N)C(=O)N[C@@H](C)C(=O)N[C@@H](CC(C)C)C(=O)N[C@@H](CCCCN)C(=O)N[C@@H](C)C(=O)N[C@@H](CC(C)C)C(=O)N[C@@H](C)C(=O)N[C@@H](C)C(=O)N[C@@H](CC(C)C)C(=O)N[C@@H](C)C(=O)N[C@@H](CCCCN)C(=O)N[C@@H](CCCCN)C(=O)N[C@H](C(=O)N[C@@H](CC(C)C)C(N)=O)[C@@H](C)CC [A2] | 38.1038 | 9.183
9 | CC[C@H](C)[C@H](N)C(=O)N[C@@H](CC(N)=O)C(=O)N[C@@H](CC(C)C)C(=O)N[C@@H](CCCCN)C(=O)N[C@@H](C)C(=O)N[C@@H](CC(C)C)C(=O)N[C@@H](C)C(=O)N[C@@H](C)C(=O)N[C@@H](CCC(=O)O)C(=O)N[C@@H](C)C(=O)N[C@@H](CCCCN)C(=O)N[C@@H](CCCCN)C(=O)N[C@H](C(=O)N[C@@H](CC(C)C)C(N)=O)[C@@H](C)CC [E9] | 4.314 | 0.4268
10 | CC[C@H](C)[C@H](NC(=O)[C@H](CCCCN)NC(=O)[C@H](CCCCN)NC(=O)[C@H](C)NC(=O)[C@H](CC(C)C)NC(=O)[C@H](C)NC(=O)[C@H](C)NC(=O)[C@H](CC(C)C)NC(=O)[C@H](C)NC(=O)[C@H](CCCCN)NC(=O)[C@H](CC(C)C)NC(=O)[C@H](CC(N)=O)NC(=O)[C@@H](N)C(C)C)C(=O)N[C@@H](CC(C)C)C(N)=O [V1] | 28.5856 | 10.9012
11 | CC[C@H](C)[C@H](N)C(=O)N[C@@H](CC(N)=O)C(=O)N[C@@H](CC(C)C)C(=O)N[C@@H](CCCCN)C(=O)N[C@@H](C)C(=O)N1CCC[C@H]1C(=O)N[C@@H](C)C(=O)N[C@@H](C)C(=O)N[C@@H](CC(C)C)C(=O)N[C@@H](C)C(=O)N[C@@H](CCCCN)C(=O)N[C@@H](CCCCN)C(=O)N[C@H](C(=O)N[C@@H](CC(C)C)C(N)=O)[C@@H](C)CC [P6] | -16.4349 | -8.854
12 | CC[C@H](C)[C@H](N)C(=O)N[C@@H](CC(N)=O)C(=O)N[C@@H](CC(C)C)C(=O)N[C@@H](CCCCN)C(=O)N[C@@H](C)C(=O)N[C@@H](CC(C)C)C(=O)N[C@@H](C)C(=O)N[C@@H](C)C(=O)N[C@@H](CC(C)C)C(=O)N[C@@H](C)C(=O)N[C@@H](CCCCN)C(=O)N[C@@H](CCCCN)C(=O)N[C@H](C(=O)N[C@@H](CCCCN)C(N)=O)[C@@H](C)CC [K14] | 21.2164 | 6.4564
13 | CC[C@H](C)[C@H](N)C(=O)N[C@@H](CC(N)=O)C(=O)N[C@@H](CC(C)C)C(=O)N[C@@H](CCCCN)C(=O)N[C@@H](C)C(=O)N[C@@H](CC(C)C)C(=O)N[C@@H](C)C(=O)N[C@@H](C)C(=O)N[C@@H](CC(C)C)C(=O)N[C@@H](C)C(=O)N[C@H](C(=O)N[C@@H](CCCCN)C(=O)N[C@H](C(=O)N[C@@H](CC(C)C)C(N)=O)[C@@H](C)CC)[C@@H](C)CC [I11] | 36.5354 | 5.295
14 | CC[C@H](C)[C@H](N)C(=O)N[C@@H](Cc1ccc(O)cc1)C(=O)N[C@@H](CC(C)C)C(=O)N[C@@H](CCCCN)C(=O)N[C@@H](C)C(=O)N[C@@H](CC(C)C)C(=O)N[C@@H](C)C(=O)N[C@@H](C)C(=O)N[C@@H](CC(C)C)C(=O)N[C@@H](C)C(=O)N[C@@H](CCCCN)C(=O)N[C@@H](CCCCN)C(=O)N[C@H](C(=O)N[C@@H](CC(C)C)C(N)=O)[C@@H](C)CC [Y2] | 75.0702 | 57.84

Reference: PMC12748989 (Nature Communications, 2025)
